Assay results published in patent EP0767778B1, “1-PHENOXY-3-N-ALKYLAMINOPROPAN-2-OL HALOGEN DERIVATIVES USEFUL AS MYOCARDIAL beta [sequence] RECEPTOR MARKERS AND AS beta-BLOCKING AGENTS” (CIS BIO INTERNATIONAL, priority 1994, dated 1996).

Columns and labels:
[1] = octanol-water partition coefficient at room temperature; format: physicochemical; details: pH 7
[2] = biodistribution study in the mouse (Example 22); format: in vivo, souris; details: souris swiss femelles, injection intraveineuse
Procedure: L'étude de la biodistribution des radioligands chez la souris, permet d'apprécier l'intensité relative de la fixation cardiaque de la molécule et son évolution dans le temps.
Après marquage à l'iode 123 et purification par CLHP 20µCi environ de produit sont mis en solution dans 5 ml d'une solution : éthanol 20%-sérum physiologique 80%. Après injection intraveineuse de 25 µl de cette solution dans la queue de souris vigiles (souris swiss femelles de 20 à 25 g), celles-ci (5 à chaque fois) sont sacrifiées à différents temps après l'injection. On mesure pour chaque souris les activités cardiaques, hépatique, rénale et pulmonaire. Les résultats sont exprimés en pourcentage de la dose injectée par gramme d'organe.
Le CGP12177 étant la référence, un lot de souris a été étudié après injection de CGP 12177 marqué au tritium.

[3] = system: récepteurs β adrénergiques; assay: isolated perfused rat heart (Langendorff), antagonism of isoprenaline on dP/dt max; details: for DP/dt max: n=6
Procedure: Dans cet exemple, on teste la propriété pharmacologique antagoniste du composé 6 vis-à-vis des récepteurs β adrénergiques.
L'expérience est conduite sur coeur de rat isolé et perfusé selon la technique de Langendorff.
Après une préperfusion de 25 minutes avec une solution de Krebs-Henseleit, le coeur est perfusé avec de l'isoprénaline à la concentration de 10^-8M pendant 10 minutes; puis avec une solution d'isoprénaline à 10^-8M associée à la molécule à tester à la concentration de 10^-6M.
Si la molécule à tester diminue la dP/dt max en présence d'isoprénaline, on pourra affirmer que cette molécule se comporte comme un antagoniste de l'isoprénaline vis-à-vis des récepteurs β adrénergiques.

[4] = Isoprénaline + molécule (10^e+8 min), isoprénaline 10^-8M, test molecule 10^-6M

Molecule	Coefficient de partage octanol-eau à pH 7 [1]	Biodistribution Foie ([2]; 2')	Biodistribution Rein ([2]; 2')	Biodistribution Foie ([2]; 5')	Biodistribution Rein ([2]; 5')	Biodistribution Foie ([2]; 10')	Biodistribution Rein ([2]; 10')	Biodistribution Coeur ([2]; 15")	Biodistribution Foie ([2]; 15")	Biodistribution Poumon ([2]; 15")	Biodistribution Rein ([2]; 15")	Biodistribution Coeur ([2]; 15')	Biodistribution Foie ([2]; 15')	Biodistribution Poumon ([2]; 15')	Biodistribution Rein ([2]; 15')	Biodistribution Coeur ([2]; 2 min.)	Biodistribution Poumon ([2]; 2 min.)	Biodistribution Coeur ([2]; 5 min.)	Biodistribution Poumon ([2]; 5 min.)	Biodistribution Coeur ([2]; 10 min.)	other results
1-[4-(2-iodoéthylènamido)phénoxy]-3-isopropylaminopropan-2-ol [composé 15]	2,91	6 ± 0,75 pourcentage de la dose injectée par gramme d'organe	20,9 ± 2,5 pourcentage de la dose injectée par gramme d'organe	3,6 ± 0,4 pourcentage de la dose injectée par gramme d'organe	13,3 ± 0,6 pourcentage de la dose injectée par gramme d'organe	2,6 ± 0,2 pourcentage de la dose injectée par gramme d'organe	7,2 ± 0,4 pourcentage de la dose injectée par gramme d'organe	16,2 ± 2,1 pourcentage de la dose injectée par gramme d'organe	4,8 ± 0,2 pourcentage de la dose injectée par gramme d'organe	55 ± 12 pourcentage de la dose injectée par gramme d'organe	17,1 ± 1,2 pourcentage de la dose injectée par gramme d'organe	3,2 ± 0,2 pourcentage de la dose injectée par gramme d'organe	2,6 ± 0,2 pourcentage de la dose injectée par gramme d'organe	11,2 ± 2,2 pourcentage de la dose injectée par gramme d'organe	6,3 ± 1 pourcentage de la dose injectée par gramme d'organe	14,4 ± 0,9 pourcentage de la dose injectée par gramme d'organe	34 ± 6 pourcentage de la dose injectée par gramme d'organe	8,4 ± 0,3 pourcentage de la dose injectée par gramme d'organe	25 ± 6 pourcentage de la dose injectée par gramme d'organe	3,6 ± 0,7 pourcentage de la dose injectée par gramme d'organe	Biodistribution Coeur ([2]; 30'): 2,2 ± 0,15 pourcentage de la dose injectée par gramme d'organe; Biodistribution Foie ([2]; 30'): 2,1 ± 0,1 pourcentage de la dose injectée par gramme d'organe; Biodistribution Poumon ([2]; 30'): 8,4 ± 0,8 pourcentage de la dose injectée par gramme d'organe; Biodistribution Rein ([2]; 30'): 4,8 ± 0,6 pourcentage de la dose injectée par gramme d'organe; Biodistribution Poumon ([2]; 10 min.): 13,2 ± 3,1 pourcentage de la dose injectée par gramme d'organe
1-{4-[2-(2-iodoéthoxy) éthoxy]phénoxy}-3-isopropyl-aminopropan-2-ol [composé 16]	6,7	3,6 ± 0,5 pourcentage de la dose injectée par gramme d'organe	16,4 ± 3,6 pourcentage de la dose injectée par gramme d'organe	7,2 ± 1,6 pourcentage de la dose injectée par gramme d'organe	19,5 ± 5 pourcentage de la dose injectée par gramme d'organe	7,8 ± 1,6 pourcentage de la dose injectée par gramme d'organe	15,4 ± 2 pourcentage de la dose injectée par gramme d'organe	20,4 ± 3,8 pourcentage de la dose injectée par gramme d'organe	1,5 ± 0,8 pourcentage de la dose injectée par gramme d'organe	112 ± 37 pourcentage de la dose injectée par gramme d'organe	4 ± 2,6 pourcentage de la dose injectée par gramme d'organe	3,6 ± 0,4 pourcentage de la dose injectée par gramme d'organe	7,9 ± 0,5 pourcentage de la dose injectée par gramme d'organe	29,6 ± 4 pourcentage de la dose injectée par gramme d'organe	14 ± 2,6 pourcentage de la dose injectée par gramme d'organe	13 ± 1,3 pourcentage de la dose injectée par gramme d'organe	73,3 ± 10 pourcentage de la dose injectée par gramme d'organe	7 ± 0,7 pourcentage de la dose injectée par gramme d'organe	52,7 ± 4 pourcentage de la dose injectée par gramme d'organe	4,1 ± 0,4 pourcentage de la dose injectée par gramme d'organe	Biodistribution Poumon ([2]; 10 min.): 38,9 ± 5,3 pourcentage de la dose injectée par gramme d'organe
CC(C)NCC(O)COc1ccc(OCOCC=CI)cc1 (racemic) [composé 10, 1-[4-(5-iodo-2-oxapent-4-ényloxy)phénoxy]3-isopropylaminopropan-2-ol]	13,2	7,2 ± 1,1 pourcentage de la dose injectée par gramme d'organe	14,8 ± 1 pourcentage de la dose injectée par gramme d'organe	10,2 ± 1,1 pourcentage de la dose injectée par gramme d'organe	14 ± 1,1 pourcentage de la dose injectée par gramme d'organe	6,3 ± 3,3 pourcentage de la dose injectée par gramme d'organe	10,7 ± 1,1 pourcentage de la dose injectée par gramme d'organe	28,4 ± 3,6 pourcentage de la dose injectée par gramme d'organe	1,7 ± 0,8 pourcentage de la dose injectée par gramme d'organe	144,52 pourcentage de la dose injectée par gramme d'organe	11,4 ± 5,1 pourcentage de la dose injectée par gramme d'organe	3,9 ± 0,2 pourcentage de la dose injectée par gramme d'organe	9 ± 0,2 pourcentage de la dose injectée par gramme d'organe	2,3 ± 7 pourcentage de la dose injectée par gramme d'organe	9,1 ± 0,4 pourcentage de la dose injectée par gramme d'organe	15 ± 1,5 pourcentage de la dose injectée par gramme d'organe	60 ± 10 pourcentage de la dose injectée par gramme d'organe	9,5 ± 2,3 pourcentage de la dose injectée par gramme d'organe	58 ± 4 pourcentage de la dose injectée par gramme d'organe	5,3 ± 0,15 pourcentage de la dose injectée par gramme d'organe	Biodistribution Coeur ([2]; 30'): 3,1 ± 0,15 pourcentage de la dose injectée par gramme d'organe; Biodistribution Foie ([2]; 30'): 7,2 ± 0,8 pourcentage de la dose injectée par gramme d'organe; Biodistribution Poumon ([2]; 30'): 22 ± 4 pourcentage de la dose injectée par gramme d'organe; Biodistribution Rein ([2]; 30'): 7,6 ± 0,2 pourcentage de la dose injectée par gramme d'organe; Biodistribution Poumon ([2]; 10 min.): 33 ± 14 pourcentage de la dose injectée par gramme d'organe
CC(C)NCC(O)c1ccc(O)c(O)c1 (stereo not shown) [Isoprenaline]																					DP/dt max ([3]; Isoprénaline (10^e min), isoprénaline 10^-8M alone): 2535±1233 mmHg/min; DP/dt max [3, 4]: 2398±1088 mmHg/min; augmentation de la dP/dt max par rapport à la préperfusion ([3]; isoprénaline seule 10^-8M): 254%
CC(C)NCC(O)COc1cccc2ccccc12 (stereo not shown) [propranolol]																					DP/dt max [3, 4]: 814±240 mmHg/min; effect on the action of isoprénaline on dP/dt max ([3]; isoprénaline 10^-8M + molecule 10^-6M): revient à la valeur basale
